In publication PMC11793105, “A kalihinol analog disrupts apicoplast function and vesicular trafficking in P. falciparum malaria” (Science (New York, N.Y.), 2024):
Like-named read-outs stand apart in the source and are kept apart here.

Assays:
[1] = tested on: P. falciparum HB3 (MRA-155); test: SYBR Green I growth inhibition assay, HB3; format: cell-based, Plasmodium falciparum; settings: early-ring stage, 72 h exposure
Procedure: Fig. 1. […] (B) SYBR Green–based dose response assays were conducted on early-ring stage parasites (6 hours after invasion). […] 3D7 WT (blue), NF54 (green), drug-resistant strains Dd2 (red), HB3 (black), W2 (gray), and D10-ACP-GFP (purple) lines (Sigmoidal, 4PL, X is concentration, n ≥ 3, nonlinear regression, CI: 95%). (C) Schematic diagram of the development of P. falciparum after two consecutive erythrocytic cycles. The time points at which MED6-189 was introduced are depicted in green. HPS, hours post synchronization. […] The images depict various developmental stages of the parasite’s intraerythrocytic life cycle. Bordered images represent time points when drug was first introduced (n = 3 biological replicates, P < 0.05).
Detailed information on materials and methods is available in the supplementary materials. […] P. knowlesi assays were quantitatively measured by flow cytometry using SYBR Green I and Mitrotracker Deep Red, as previously described ([84], [85]), on a Beckman Coulter CytoFLEX. […]
P. falciparum in vitro SYBR green fluorescence-based assays The anti-malarial activity of individual analogues were evaluated in-vitro against P. falciparum 3D7 (MRA-102, drug […]
green-I based fluorescence assay. Parasite growth rate and stages of development were determined via microscopy through Giemsa-stained smears of the cultures. […]

[2] = Pharmacokinetics after oral administration to P. falciparum-infected mice (Table S10); format: in vivo, P. falciparum-infected SCID mice; settings: for Cmax: 50mg/kg oral in 1% Methylcellulose; for AUC(0-inf): read-out: AUCINF_obs
Procedure: An Acquity ultra-performance liquid chromatography (UPLC) system (Waters Corp., Milford, MA, USA) couple to a triple quadrupole mass spectrometer (API 4000, AB Sciex, Foster City, CA, USA) was used for the analysis ([99]).
Blood concentration time data were analyzed by Non-Compartmental PK analysis using Phoenix WinNonlin software (Certara, NY, US) to calculate PK parameters. […]
mg/kg per day for four consecutive days. Treatment started at day 3 and finished at day 6 after infection. In all cases, parasitemia was assessed in samples from peripheral blood obtained at days 3, 4, 5, 6, and 7 after infection. Fresh samples of peripheral blood from P. falciparum-infected mice were stained with TER-119-Phycoerythrine (marker of murine erythrocytes) and SYTO-16 (nucleic acid dye) and then analyzed by flow cytometry (FACSCalibur, BD). Efficacy was determined using flow cytometry data as the percentage of Parasitemia reduction compared with […]
blood samples obtained during the 23 h period after the first dose in all mice. Peripheral blood samples (15 µL) were taken at frequent intervals, mixed with 30 µL of H2O milli Q and immediately frozen on dry ice. The frozen samples were stored at −80 °C until analysis. Vehicle-treated mice experienced the same blood-sampling regimen (table S9, S10).
Bioanalysis and pharmacokinetics analysis: LC-MS
Bioanalysis of in vivo samples: Sample pretreatment Before the analysis 15ul of blood samples were defrost at ambient temperature and mixture with 200ul of ACN:MeOH (80:20). After protein precipitation samples were filtered by 0.45um filter plate (Multiscreen Solvinert 0.45um FTPE, Millipore). The 2ul TFA (Trifluoroacetic acid, sigmaAldrich) were added to each filtered sample in order to derivatize the compound to formamide analogue. This process occurs spontaneously.
LC-MS analysis An Acquity Ultra-Performance liquid chromatography (UPLC) system (Waters Corp., Milford, MA, USA) couple to a triple quadrupole mass spectrometer (API 4000™, AB Sciex, Foster City, CA, USA) was used for the analysis. The MS/MS transition was 311.340 / […]
The chromatographic separation was carried out at 0.4ml/min in a Acquity UPLC™ BEH C18 column (50x2.1 mm i.d., […]; Waters Corp.) at 40 °C with Acetonitrile (sigmaAldrich) and 0.1% formic acid as eluents.
Pharmacokinetic analysis Blood concentration time data were analyzed by Non-Compartmental PK analysis using Phoenix WinNonlin software (Certara NY, US) to calculate PK parameters. The maximum observed concentration (Cmax) and the time to reach it (Tmax), were determined. The area under concentration-time curve from dosing at time zero to the last measured concentration […]
time (AUClast) and the total area under concentration-time curve from time zero extrapolated to infinity (AUCinf), were calculated using a linear trapezoidal rule. […]

[3] = 50mg/kg oral, infected mice, individual mice
[4] = SCID, mouse, whole blood, po, 50 mg/kg, 50mg/kg oral, infected mice, Mean
[5] = SCID, mouse, whole blood, po, 50 mg/kg, 50mg/kg oral, infected mice, individual mice

[C-]#[N+][C@]1(C)CC[C@H]2[C@@H]([C@@H](C(C)C)CC[C@]2(C)[N+]#[C-])[C@H]1O [MED6-189]
IC50 ([1]; Plasmodium falciparum, HB3, 72 h): 23 ± 2 nM
IC50 [1]: 22.8 nM
accumulation in blood (levels at 96 hrs) ([2]; 50 mg/kg oral every 24h, four days): no accumulation
Cmax ([2]; infected mice, individual mice 1 and 2): 8980 ng/mL
Tlast ([2]; 50mg/kg oral, infected mice, Mean): 24 h
AUCINF_obs [2, 3]: 115.877 µg·h/mL
AUClast [2, 3]: 114.617 µg·h/mL
Tlast [2, 3]: 24 h
Cmax ([2]; SCID, mouse, whole blood, po, 50 mg/kg, infected mice, Mean, read-out: Cmax): 7920 ng/mL
Cmax ([2]; SCID, mouse, whole blood, po, 50 mg/kg, infected mice, individual mice 1 and 2, read-out: Cmax): 6860 ng/mL
AUC(0-t) [2, 4]: 101 µg·h/mL
AUC(0-inf) [2, 4]: 105 µg·h/mL
AUC(0-t) [2, 5]: 86.8 µg·h/mL
AUC(0-inf) [2, 5]: 94.1 µg·h/mL
Tmax ([2]; SCID, mouse, whole blood, 50mg/kg oral, infected mice, individual mice): 7 h
